What is called logD is the decadic logarithm of the distribution of all forms, ionised or not, between an organic phase and buffer at a given pH. Lower therefore signals a more hydrophilic compound.

The test system of one data set is Meloidogyne incognita. The data set can be described thus: Critical Concentration Test/nematodes. Format: in vivo. The conditions noted are these: 20 ppm (=mg/l soil), four weeks, 25° C., 100% = infestation avoided completely. The method, then:
Critical Concentration Test/nematodes
Test nematode: Meloidogyne incognita
Solvent: 4 parts by weight of acetone
Emulsifier: 1 part by weight of alkylaryl polyglycol ether
To produce a suitable preparation of active compound, 1 part by weight of active compound is mixed with the stated amount of solvent, the stated amount of emulsifier is added and the concentrate is diluted with water to the desired concentration.
The active compound preparation is intimately mixed with soil which is heavily infested with the test nematodes. The active compound concentration in the preparation is immaterial, only the amount of active compound per unit volume of soil, which is given in ppm (=mg/l), matters. The treated soil is transferred into pots, lettuce is sown in, and the pots are kept at a greenhouse temperature of 25° C.
After four weeks, the lettuce roots are checked for infestation with nematodes (root galls) and the efficacy of the active compound in % is determined. The efficacy is 100% when infestation is avoided completely and 0% when the infestation level is just as high as in the control plants in untreated, but equally infested, soil.

In data set [1] the test system is Boophilus Microplus Resistent/SP-resistent Parkhurst Strain. The data set can be described thus: Test with Boophilus Microplus Resistent/SP-resistent Parkhurst Strain (inhibition of oviposition). Type of data set: in vivo. The settings on record: 20 μg/animal; 1 μl injected into the abdomen, adult females; 100% = no tick has deposited eggs. The method, then: Test with Boophilus Microplus Resistent/SP-resistent Parkhurst Strain
Test animals: Adult females which have sucked themselves full
Solvent: Dimethyl sulphoxide
20 mg of active compound are dissolved in 1 ml of dimethyl sulphoxide, and lower concentrations are prepared by diluting in the same solvent.
The test is carried out in 5 replications. 1 μl of the solutions is injected into the abdomen, and the animals are transferred into dishes and kept in an air-conditioned room. The activity is determined via the inhibition of oviposition. 100% means that no tick has deposited eggs.

A further data set in a line: log p (pH 2). Format: physicochemical.

For the molecule `CC(=O)NC(=Cc1ccccc1)C(=O)OCCC(F)=C(F)F` [Example Ia-2], in the data set on Meloidogyne incognita, the “efficacy of the active compound in % (nematode infestation of lettuce roots, root galls)” value is reported as 100%.
For `CC(=O)NC(=Cc1cccs1)C(=O)OCCC(F)=C(F)F` [Example Ia-4], the “activity (inhibition of oviposition)” value in data set [1] is on record as 100%.
On to `C[C@H](NC(=O)c1c(F)cccc1F)C(=O)OCCC(F)=C(F)F` [Example Ib-2, 3,4,4-trifluorobut-3-enyl N-(2,6-difluorobenzoyl)-alaninate], for which the pH-dependent lipophilicity (logD) in “log p (pH 2)” worked out at 2.42.
In “log p (pH 2)”, `O=C(CNC(=O)c1ccccc1)OCCC(F)=C(F)F` [Ib-6] registered a logD of 2.09.
`O=CNC1(C(=O)OCCC(F)=C(F)F)CC1` [Ib-14] registered a pH-dependent lipophilicity (logD) in “log p (pH 2)” of 1.32.
The molecule `O=C(OCCC(F)=C(F)F)C1CCCN1C(=O)OCc1ccccc1` (stereo not drawn) [Ic-1] showed a logD in “log p (pH 2)” of 3.31.
